Experimental data published in PMC6141879, “How Does the Sweet Violet (Viola odorata L.) Fight Pathogens and Pests – Cyclotides as a Comprehensive Plant Host Defense System” (Frontiers in Plant Science, 2018).
Values after ≈ are worked out from the molar mass of the structure shown. Where a SMILES comes first, the peptide text is derived from it. Bridges are numbered along the chain shown (N, C = ends).

Tests used:
[1] = system: Pectobacterium atrosepticum SCRI 1043; settings: 24 h
[2] = Liposome leakage assay, fungal membrane model; settings: read-out: EC50 of liposome permeabilization (carboxyfluorescein leakage); S. cerevisiae polar lipid extract:ergosterol 7:3 liposomes, Tris buffer, 45 min, % of Triton X-100 leakage, triplicate
[3] = system: Fusarium culmorum; settings: 48 h
[4] = system: Alternaria alternata; settings: 72 h
[5] = system: Mycosphaerella fragariae; settings: 48 h
[6] = system: Fusarium oxysporum; settings: 0 h
[7] = system: Fusarium graminearum; settings: 48 h
[8] = system: Colletotrichum utrechtense; settings: 72 h
[9] = system: Dickeya dadantii strain 3937; settings: 24 h
[10] = system: F. oxysporum; experiment: Cyclotide stability assay in F. oxysporum culture; assay type: in vitro ADME, Fusarium oxysporum; settings: 5 days old F. oxysporum culture (3000 spores in 150 μl 24 g l^-1 PDB), 5 μg cyO2 per well, 3 days, HPLC-UV 280 nm AUC relative to time 0, mean of triplicates, unaltered molecular mass
Method: Freshly harvested F. oxysporum spores were grown in microplates (3000 spores in 150 μl of 24 g l^-1 PDB per well) on a rotary shaker. After 5 days of incubation, 5 μg of cyO2 in 10 μl of Milli-Q water was added to each well. Samples of the medium and mycelia were collected in Eppendorf tubes immediately after adding cyO2 (time 0) and after incubation with the cyclotide for 2, 4, 8h, 1, 2, and 3 days. The samples were freeze-dried, crushed with a pestle, and extracted with 200 μl of buffer B for 4 h on the rotary shaker. After centrifugation, the supernatant was collected, freeze-dried and reconstituted in buffer A for analysis by HPLC-UV-ESI-MS. HPLC was performed over 18 min using an LC-20 UFLC system (Shimadzu, Japan) with photodiode array detector (PDA) and a Waters (Milford, MA) XTerra MS C18 HPLC column (2.1 × 50 mm, with a particle size of 2.5 μm) at a flow rate of 0.5 ml min^-1 with a linear gradient from 5% to 60% ACN and 0.1% formic acid in water. ESI-MS detection was used to identify the cyO2 peak and to detect modifications of the peptide that may have been introduced by the fungus. For each incubation time, the peaks in the 280 nm UV chromatogram corresponding to cyO2 were integrated, and the mean area under the curve (AUC) for each incubation time was computed from independent triplicates. […]

[11] = system: seven fungal plant pathogens; settings: 0 h
[12] = system: Pseudomonas syringae pv. syringae strain Pss-762; experiment: Antibacterial MIC assay (CLSI), P. syringae pv. syringae; assay type: cell-based; settings: M9 minimal medium with 0.4% glucose, 24 h, 28°C, 1.5 × 10^6 CFU ml^-1, OD600 < 0.1, triplicate, repeated three times
Method: Cyclotides (cycloviolacin O2, O3, and O19) at concentrations of 0.78–100 μM were tested for activity against three bacterial plant pathogens: Pseudomonas syringae pv. syringae strain Pss-762 ([Taraszkiewicz et al., 2012]), Dickeya dadantii strain 3937 ([Glasner et al., 2011]) and Pectobacterium atrosepticum SCRI 1043 ([Bell et al., 2004]). Experiments were conducted according to the CLSI guidelines ([Clinical and Laboratory Standards Institute [CLSI], 2012]) using standard CA-MHB medium (BBL^TM Mueller-Hinton II Broth cation-adjusted, Becton Dickinson) or M9 minimal medium (per L: 6 g Na2HPO4, 3g KH2PO4, 0.5 g NaCl, 1 g NH4Cl) supplemented with glucose to a final concentration of 0.4%. Bacterial colonies from 24 h old cultures on TSA (trypticase soy agar, BioMerieux) plates were used to inoculate CA-MHB or M9 minimal medium and set up liquid cultures. Next, late log phase bacterial cultures were diluted to 0.5 McFarland standard, as determined by densimetry in the relevant medium (DensiMeter II, EMO, Brno). […] The minimal inhibitory concentration (MIC) of each cyclotide was determined as the lowest concentration required to inhibit bacterial growth, i.e., to reduce the culture’s OD600 to less than 0.1. OD600 values were measured with a microplate reader (EnVision^TM Multilabel Plate Reader, Perkin Elmer). […]

[13] = system: Botrytis cinerea; settings: 48 h

Compound | MIC [1] | EC50 [2] | MIC [3] | MIC [4] | MIC [5] | MIC at the inoculum used for immunogold labeling [6] | MIC [7] | MIC [8] | MIC [9] | initially added amount recovered after co-culture with F. oxysporum [10] | MICs, range or bound over the tested fungi [11] | MIC [12] | MIC [13]
CC[C@H](C)[C@@H]1NC(=O)[C@H](C)NC(=O)[C@H](CO)NC(=O)[C@H](CO)NC(=O)[C@H]([C@@H](C)CC)NC(=O)[C@@H]2CSSC[C@@H]3NC(=O)[C@H](C(C)C)NC(=O)[C@H](CCCCN)NC(=O)[C@H](CO)NC(=O)[C@H](CCCCN)NC(=O)[C@@H]4CSSC[C@H](NC(=O)[C@H](CO)NC(=O)[C@H](CCC(=O)O)NC(=O)CNC(=O)[C@H](CSSC[C@H](NC(=O)CNC1=O)C(=O)N[C@@H](CO)C(=O)N4)NC(=O)[C@@H]1CCCN1C(=O)[C@H]([C@@H](C)CC)NC(=O)CNC(=O)[C@H](CC(N)=O)NC(=O)[C@H](CCCNC(=N)N)NC(=O)[C@H](Cc1ccc(O)cc1)NC3=O)C(=O)N[C@@H](C(C)C)C(=O)N[C@@H](Cc1c[nH]c3ccccc13)C(=O)N[C@@H]([C@@H](C)CC)C(=O)N1CCC[C@H]1C(=O)N2 [cyO2, cycloviolacin O2] (cyclo(AIGCSCKSKVCYRNGIPCGESCVWIPCISS); disulfide 4-18, 6-22, 11-27 (inferred); ring closure inferred) | 100 µM (≈ 314 µg/mL) | 72 nM | 1.5 µM (≈ 4.71 µg/mL) | 1.5 µM (≈ 4.71 µg/mL) | >25 µM | 80 µM | 6.25 µM (≈ 19.6 µg/mL) | 6.25 µM (≈ 19.6 µg/mL) | 75 µM (≈ 236 µg/mL) | ~100% |  |  | 
CC[C@H](C)[C@@H]1NC(=O)[C@H](C)NC(=O)[C@H](CO)NC(=O)[C@H]([C@@H](C)O)NC(=O)[C@H](CC(C)C)NC(=O)[C@@H]2CSSC[C@@H]3NC(=O)[C@H](C(C)C)NC(=O)[C@H](CCCCN)NC(=O)[C@H](CO)NC(=O)[C@H](CCCCN)NC(=O)[C@@H]4CSSC[C@H](NC(=O)[C@H](CO)NC(=O)[C@H](CCC(=O)O)NC(=O)CNC(=O)[C@H](CSSC[C@H](NC(=O)CNC1=O)C(=O)N[C@@H](CO)C(=O)N4)NC(=O)[C@@H]1CCCN1C(=O)[C@H]([C@@H](C)CC)NC(=O)CNC(=O)[C@H](CC(N)=O)NC(=O)[C@H](CCCNC(=N)N)NC(=O)[C@H](Cc1ccc(O)cc1)NC3=O)C(=O)N[C@@H](C(C)C)C(=O)N[C@@H](Cc1c[nH]c3ccccc13)C(=O)N[C@@H]([C@@H](C)CC)C(=O)N1CCC[C@H]1C(=O)N2 [cyO3] (cyclo(AIGCSCKSKVCYRNGIPCGESCVWIPCLTS); disulfide 4-18, 6-22, 11-27) | 100 µM (≈ 315 µg/mL) | 67 nM |  | 0.8 µM (≈ 2.52 µg/mL) |  |  |  | 6.25 µM (≈ 19.7 µg/mL) | 75 µM (≈ 237 µg/mL) |  | 0.8 to 12.5 µM | 25 µM (≈ 78.9 µg/mL) | 1.5 µM (≈ 4.73 µg/mL)
CC[C@H](C)[C@@H]1NC(=O)[C@H](C)NC(=O)[C@H](C)NC(=O)[C@H](CO)NC(=O)[C@H]([C@@H](C)CC)NC(=O)[C@@H]2CSSC[C@@H]3NC(=O)[C@H](C(C)C)NC(=O)[C@H](CCCCN)NC(=O)[C@H](CO)NC(=O)[C@H](CCCCN)NC(=O)[C@@H]4CSSC[C@H](NC(=O)[C@H](CO)NC(=O)[C@H](CCC(=O)O)NC(=O)CNC(=O)[C@H](CSSC[C@H](NC(=O)CNC1=O)C(=O)N[C@@H](CO)C(=O)N4)NC(=O)[C@@H]1CCCN1C(=O)[C@H]([C@@H](C)CC)NC(=O)CNC(=O)[C@H](CC(N)=O)NC(=O)[C@H](CCCNC(=N)N)NC(=O)[C@H](Cc1ccc(O)cc1)NC3=O)C(=O)N[C@@H](C(C)C)C(=O)N[C@@H](Cc1c[nH]c3ccccc13)C(=O)N[C@@H]([C@@H](C)CC)C(=O)N1CCC[C@H]1C(=O)N2 [cyO13] (cyclo(AAIGCSCKSKVCYRNGIPCGESCVWIPCIS); disulfide 5-19, 7-23, 12-28) |  | 130 nM |  | 3 µM (≈ 9.37 µg/mL) |  |  |  | 6.25 µM (≈ 19.5 µg/mL) |  |  |  |  | 3 µM (≈ 9.37 µg/mL)
CC[C@H](C)[C@@H]1NC(=O)[C@@H]2CSSC[C@@H]3NC(=O)[C@H](C(C)C)NC(=O)[C@H](CCCCN)NC(=O)[C@H](CO)NC(=O)[C@H](CCCCN)NC(=O)[C@@H]4CSSC[C@H](NC(=O)[C@H](CO)NC(=O)[C@H](CCC(=O)O)NC(=O)CNC(=O)[C@H](CSSC[C@H](NC(=O)CNC(=O)[C@H](C(C)C)NC(=O)[C@H](C(C)C)NC(=O)[C@H](CO)NC(=O)[C@H](CO)NC1=O)C(=O)N[C@@H](CO)C(=O)N4)NC(=O)[C@@H]1CCCN1C(=O)[C@H](CC(C)C)NC(=O)[C@H]([C@@H](C)O)NC(=O)CNC(=O)[C@H](CC(=O)O)NC(=O)[C@H](CCCCN)NC(=O)[C@H](Cc1ccc(O)cc1)NC3=O)C(=O)N[C@@H](C(C)C)C(=O)N[C@@H](Cc1c[nH]c3ccccc13)C(=O)N[C@@H]([C@@H](C)CC)C(=O)N1CCC[C@H]1C(=O)N2 [cyO19] (cyclo(CGESCVWIPCISSVVGCSCKSKVCYKDGTLP); disulfide 1-17, 5-19, 10-24) | 100 µM (≈ 323 µg/mL) | 80 nM | 1.5 µM (≈ 4.84 µg/mL) | 1.5 µM (≈ 4.84 µg/mL) | >25 µM |  | 12.5 µM (≈ 40.4 µg/mL) | 6.25 µM (≈ 20.2 µg/mL) | 75 µM (≈ 242 µg/mL) |  |  | 25 µM (≈ 80.7 µg/mL) | 1.5 µM (≈ 4.84 µg/mL)
CC(C)C[C@@H]1NC(=O)CNC(=O)[C@H](CC(N)=O)NC(=O)[C@H](CCCNC(=N)N)NC(=O)[C@H]([C@@H](C)O)NC(=O)[C@@H]2CSSC[C@@H]3NC(=O)[C@H]([C@@H](C)O)NC(=O)CNC(=O)CNC(=O)[C@H](C(C)C)NC(=O)[C@@H]4CSSC[C@H](NC(=O)[C@H]([C@@H](C)O)NC(=O)[C@H](CSSC[C@H](NC(=O)[C@H](C(C)C)NC(=O)[C@@H]5CCCN5C1=O)C(=O)NCC(=O)N[C@@H](CCC(=O)O)C(=O)N[C@@H]([C@@H](C)O)C(=O)N4)NC(=O)CNC(=O)[C@@H]1CCCN1C(=O)[C@H]([C@@H](C)O)NC(=O)[C@H](CC(N)=O)NC3=O)C(=O)N[C@@H](CO)C(=O)N[C@@H](Cc1c[nH]c3ccccc13)C(=O)N1CCC[C@H]1C(=O)N[C@@H](C(C)C)C(=O)N2 [kB1, kalata B1] |  |  | >80 µM |  | >80 µM |  | >80 µM |  |  |  |  |  | 80 µM (≈ 231 µg/mL)
CC(C)C[C@@H]1NC(=O)CNC(=O)[C@H](CC(N)=O)NC(=O)[C@H](CCCNC(=N)N)NC(=O)[C@H]([C@@H](C)O)NC(=O)[C@@H]2CSSC[C@@H]3NC(=O)[C@H]([C@@H](C)O)NC(=O)CNC(=O)CNC(=O)[C@H](C(C)C)NC(=O)[C@@H]4CSSC[C@H](NC(=O)[C@H](CO)NC(=O)[C@H](CSSC[C@H](NC(=O)[C@H](C(C)C)NC(=O)[C@@H]5CCCN5C1=O)C(=O)NCC(=O)N[C@@H](CCC(=O)O)C(=O)N[C@@H]([C@@H](C)O)C(=O)N4)NC(=O)CNC(=O)[C@@H]1CCCN1C(=O)[C@H]([C@@H](C)O)NC(=O)[C@H](CC(N)=O)NC3=O)C(=O)N[C@@H](CO)C(=O)N[C@@H](Cc1c[nH]c3ccccc13)C(=O)N1CCC[C@H]1C(=O)N[C@@H](C(C)C)C(=O)N2 [varv A] |  |  | 40 µM (≈ 115 µg/mL) |  | >80 µM |  | 40 µM (≈ 115 µg/mL) |  |  |  |  |  | 80 µM (≈ 230 µg/mL)
